Ends that are not written are not given here.
Tests used:
[1] = test system: NNV; conditions: synthetic sea bass peptides, NNV infection; ref Cervera et al. [2024b], [2025]; cited from earlier work
Procedure: Since co-administered peptides disrupt RGNNV adsorption in vitro, we evaluated their therapeutic potential in vivo by administering them […]. […] Given RGNNV’s rapid organ colonisation (Valero et al. [2018]), treatments were administered 2 h post-infection to ensure viral establishment.

[2] = test system: E-11 cells; experiment: MTT cytotoxicity test on E-11 cells; assay type: cell-based; conditions: 24 h at 25 °C, mean of n = 3, control = 100.0
Procedure: Synthetic peptides cytotoxicity on E − 11 cells was assessed using the MTT (Sigma) test with serial peptide dilutions (1000–4 µg/mL in L − 15 medium; n = 3; 24 h at 25 °C) as elsewhere (Cervera et al. [2024c]). Absorbance was measured at 570 nm (BMG Labtech); blanks lacked cells. Cell viability was calculated as the OD ratio of treated to untreated cells × 100, normalized at 690 nm.
Supplementary data S4: Cell viability (%) of E-11 cells after incubation with the synthetic peptides for 24 h. Data represent the mean ± SEM (n=3).

[3] = test system: RGNNV; experiment: RGNNV in vivo bath challenge of European sea bass with peptide injection after infection; parameters: species or system European sea bass (Dicentrarchus labrax)
Procedure: RGNNV In vivo Challenge of European Sea Bass
A total of 375 sea bass were randomly assigned to eight experimental groups (in duplicate) and acclimated for 15 days. Seven groups were infected by immersion (10 L; 3.16 × 10^4 TCID₅₀ RGNNV/mL; 2 h), while a mock-infected control received conditioned medium. […] Combinations were selected according to the results obtained in the competitive in vitro assay against RGNNV (see below). Disease signs and mortalities were monitored daily for 23 days post-infection (dpi) using a four-rank scale (Valero et al. [2021a]). Fish (n = 6/group/time-point) were sampled at 2 and 23 dpi, euthanized with clove oil, bled, and weighed. Brain, NNV target tissue, and head-kidney, major hematopoietic tissue in fish, were dissected, frozen in TRIzol (Life Technologies), and stored at − 80 °C.
For viral load analysis, total RNA was extracted from sea bass brain and head-kidney using TRIzol (Life Technologies) and from E − 11 cells using the GenJET RNA Purification Kit (Thermo Fisher Scientific), following manufacturer protocols. One microgram of RNA was DNAse I-treated (1 U/µL; Thermo Scientific), and cDNA was synthesized using Superscript IV Reverse Transcriptase (Invitrogen). qPCR was performed on a QuantStudio 5 Flex (Applied Biosystems) to quantify cp, rdrp and mx genes using PowerUp SYBR Green reagents (Applied Biosystems). The protocol included a 95 °C hold, then 40 cycles (95 °C; 15 s) and 60 °C for 1 min. Relative expression was calculated using the 2^⁻ΔCt method (Livak and Schmittgen [2001]), with ef1a as the endogenous control. Primers (Supplementary Data S2) were validated by melting curve analysis and negative controls.
Fish mortality was analysed using Kaplan–Meier survival curves with log-rank (Mantel–Cox) tests for significance. Relative gene expression was evaluated by one-way ANOVA (p ≤ 0.05) followed by Tukey’s test. Viral kinetics were compared between P4-treated and untreated groups using Student’s t-test (p ≤ 0.05) at specific time points. All analyses were performed with IBM SPSS Statistics 20.
Fig. 4 Therapeutic administration of synthetic peptides improves survival and symptomatology in […] (RGNNV)-infected European sea bass juveniles. […] A mock-infected group was treated twice with only PBS. (A) Kaplan–Meier survival curves; (B) Heat-map representing the cumulated number of fish showing clinical signs of VER disease attending to their severity: (1) changes of the color of the skin, slower rhythm of swimming and/or slower reaction to external stimuli as feeding; (2) alterations in the swimming balance and/or erratic swimming spasms; (3) continuous erratic swimming; and (4) complete incapacity to keep balance, swim and/or move without external stimuli. VER, viral encephalopathy and retinopathy
Fig. 5 Therapeutic administration of synthetic peptides decreased viral loads in the brain without additional mx gene regulation in the sea bass juveniles head-kidney infected with red-spotted grouper nervous necrosis virus (RGNNV). […] A mock-infected group was treated twice with only PBS. (A–C) Transcription levels of RGNNV cp (A) and rdrp (B) genes in the brain and (C) mx gene in the head-kidney. Data represent the relative gene expression mean ± SEM (n = 6). Different letters indicate significant differences among groups according to the ANOVA (p < 0.05)

[4] = test system: RGNNV/SJNNV reassortant; experiment: In vitro antiviral (competition) assay: virus incubated with peptide, then titrated in E-11 cells; assay type: cell-based, RGNNV/SJNNV reassortant (367.2.2005); conditions: virus (MOI 0.01) incubated with 500 μg/mL peptide for 15 min at 25 °C, control virus + PBS, representative of two independent assays, Fig. 2B
Procedure: (§1) Parental RGNNV (strain It/411/96), SJNNV (strain SJNag97), and reassortant isolates (RGNNV/SJNNV, 367.2.2005; SJNNV/RGNNV, 389/I96) were used. Viruses were propagated in E − 11 cells cultured in L-15 Leibovitz medium (BioWest) supplemented with 5% FBS, 2 mM L-glutamine, and 100 IU/mL penicillin/streptomycin (Thermo Fisher Scientific) at 25 °C. Infected monolayers were incubated at 25 °C until extensive cytopathic effect (CPE) developed. Supernatants were then harvested, centrifuged, and titrated in triplicate using the end-point dilution method, expressed as TCID₅₀/mL (Reed and Müench [1938]).
(§2) For in vitro antiviral assays, viral cultures (MOI 0.01) from parental and reassortant strains were incubated with peptides (single or combined) using a non-lethal concentration previously tested (500 μg/mL; León et al. [2020]), for 15 min at 25 °C with gentle agitation. Controls were virus samples incubated with PBS (100% viral activity). Treated samples were titrated as previously. After medium removal, cells were exposed to ten-fold viral dilutions in 2% FBS. CPE was monitored daily for 10 days, and viral titres were calculated as TCID₅₀/mL (Reed and Müench [1938]) and expressed as viral titre or percent inhibition relative to controls.
Fig. 2 Designed peptides, single or combined, reduce the NNV absorption in vitro. […]

[5] = test system: SJNNV; assay type: cell-based, striped jack nervous necrosis virus (strain SJNag97); conditions: virus (MOI 0.01) incubated with 500 μg/mL peptide for 15 min at 25 °C, titrated in E-11 cells; control virus + PBS; representative of two independent assays; Fig. 2B
Procedure: as §1, §2
Fig. 2 Designed peptides, single or combined, reduce the NNV absorption in vitro. NNV parental or reassortant genotypes were incubated with 500 μg/mL of the synthetic peptides for 15 min. Then, the viruses were titrated in the E − 11 cell line. Control samples consisted on virus incubated with the same amount of phosphate buffer saline. (A) Viral titer (TCID50/mL) and (B) % of virus inhibition with respect to the controls are represented. Data are representative of two independent assays. […] Each bar was matched to a substance by its colour and by the order of the legend.

[6] = test system: RGNNV; parameters: method as in Zhu et al. [2022]; conditions: RGNNV-infected hybrid grouper; ref Zhu et al. [2022]; cited from earlier work
Procedure: Given RGNNV’s rapid organ colonisation (Valero et al. [2018]), treatments were administered 2 h post-infection to ensure viral establishment.

Molecule: Hepcidin
- Reduction of mortality [1]: 30–35%

Molecule: PRLGHAARIFQRYA-NH2 [Peptide P3]
- Viability (%) of E-11 cells, mean ([2]; peptide 0.00411 mg/mL): 89.4%
- Viability (%) of E-11 cells, mean ([2]; peptide 0.01234 mg/mL): 93.2%
- Viability (%) of E-11 cells, mean ([2]; peptide 0.03704 mg/mL): 96.3%
- Viability (%) of E-11 cells, mean ([2]; peptide 0.11111 mg/mL): 89.8%
- Viability (%) of E-11 cells, mean ([2]; peptide 0.33333 mg/mL): 90.9%
- Viability (%) of E-11 cells, mean ([2]; peptide 1.00000 mg/mL): 101.7%
- Relative percent survival (RPS) ([3]; juvenile sea bass, bath infection 3.16 × 10^4 TCID₅₀ RGNNV/mL for 2 h, then intramuscular injection 1 µg peptide/g, 23 dpi, infected PBS group 63.6% survival): 62.5%
- RGNNV cp gene expression in the brain ([3]; qPCR relative to ef1a, 2 dpi, n = 6, 1 µg peptide/g i.m. after RGNNV bath challenge, Fig. 5A): lowered
- RGNNV rdrp gene expression in the brain ([3]; qPCR relative to ef1a, 2 dpi, n = 6, 1 µg peptide/g i.m. after RGNNV bath challenge, Fig. 5B): lowered
- % of virus inhibition with respect to the controls, RGNNV/SJNNV [4]: 96.84%
- % of virus inhibition with respect to the controls, SJNNV [5]: 90%

Molecule: NC12CC3CC(CC(C3)C1)C2 [amantadine]
- Improvement of survival [6]: 44%

— paper PMC12374861, “Synthetic Peptides Suppress Nervous Necrosis Virus Absorption and Improve Survival Rates in European Sea Bass” (Marine Biotechnology (New York, N.y.), 2025)
